By fraction remaining is commonly meant the share of the starting amount still present when the sample was taken.

Data set [1] is described as follows: in vitro. The settings on record: mouse, liver microsomes. On the technique in general: Microsomes from liver hold many membrane-bound enzymes, among them those of drug oxidation.
A short description of data set [2]: in vitro. The settings on record: mouse, liver microsomes. This is another data set of the same source.

Regarding `O=C1CC2(CCCC2)CC(=O)N1CCCCN1CCN(c2ncccn2)CC1` [BUSPIRONE], the share remaining at 0.5 h, 1000 µM is 0.29% in “in vitro [1]” and 99.1% in “in vitro [2]”.
Taken in the same sequence, the figures for `O=C(/C=C/c1cccn(CCCc2ccc3ccccc3c2)c1=O)NO` were 35.5% and 90.3%.

For the origin of these results see ChEMBL document CHEMBL4000204, “Improving potency and metabolic stability by introducing an alkenyl linker to pyridine-based histone deacetylase inhibitors for orally available RUNX3 modulators” (Eur J Med Chem, 2017).
